Measured values: patent US20190231771A1, “METHODS FOR TREATMENT AND PREVENTION OF OPIOID INDUCED CONSTIPATION USING ORAL COMPOSITIONS OF METHYLNALTREXONE” (Salix Pharmaceuticals, Ltd., priority 2011, published 2019)
Like-named read-outs stand apart in the source and are kept apart here.

Assays:
Assay type in all cases: in vivo, human
[1] = system: subjects with chronic non-malignant pain who have Opioid Induced Constipation (OIC); test: Phase 3 randomized double-blind placebo-controlled study of Oral Methylnaltrexone for OIC
Method: A phase 3, multicenter, randomized, double-blind, placebo-controlled, parallel-group study of OM for the treatment of OIC in approximately 802 subjects with chronic non-malignant pain was conducted.
Constipation due to opioid use during the screening period: Constipation is defined as <3 Rescue-Free Bowel Movements (RFBMs) per week on average (no laxative use within 24 hours prior to bowel movement) that were associated with 1 or more of the following (based on subject's diary report): • a. A Bristol Stool Form Scale type 1 or 2 for at least 25% of the rescue-free bowel movements. • b. Straining during at least 25% of the rescue-free bowel movements. • c. A sensation of incomplete evacuation after at least 25% of the rescue-free bowel movements.
Subjects who remained eligible at the baseline visit (day 1) were randomly assigned to either OM tablet formulation 150 mg, 300 mg, 450 mg, or placebo initially in a 1:1:1:1 allocation ratio. Subjects were required to take three tablets per day, first thing in the morning on an empty stomach (prior to breakfast). Subjects were instructed to swallow the tablets whole and never to chew, divide, or crush them and wait at least one half hour before ingesting any food. Subjects participated in the study for up to 84 days. The first 28 days were once daily dosing; the remaining 56 days were dosing as needed (PRN). Dosing remained double-blind throughout the 12 week period (84 days). The 84 day treatment period were followed by a 14-day post-treatment follow-up period (±2 days). Enrollment continued until a total of approximately 802 subjects have been randomized and dosed.
At the baseline visit, subjects were randomly assigned to either OM or placebo. Subjects who met all inclusion and no exclusion criteria at the baseline visit (day 1) received study medication. All doses were to be taken in the morning prior to breakfast [The first dose administered at the baseline visit could have been taken after Noon (12:00 pm)] and subjects were instructed to wait at least one half hour before ingesting any food. Subjects participated in the study for up to 84 days: the first 28 days were double-blind once daily dosing; the remaining 56 days were double-blind PRN dosing.
The primary efficacy endpoint of this Phase 3 study was the average proportion of rescue-free laxation responses per subject within 4 hours of all doses during the first four weeks of dosing. The key secondary efficacy endpoints in hierarchical order were:
1. Change in weekly number of RFBM from baseline during Weeks 1 to 4
2. Response (responder/non-responder) to study drug during Weeks 1 to 4, where responder was defined as having ≥3 RFBM/week, with at least 1 RFBM/week increase over baseline, for at least 3 out of the first 4 weeks.
The primary efficacy endpoint was the average proportion of rescue-free laxation responses per subject within 4 hours of all doses during the first 4 weeks of dosing.
The two key secondary efficacy endpoints in hierarchical order were: • 1. Change in weekly number of RFBMs from baseline over the entire first 4 weeks (28 days) of dosing. • 2. Response (responder/non-responder) to study drug during Weeks 1 to 4, where responder is defined as having […], with at least 1 RFBM/week increase over baseline, for at least 3 out of the first 4 weeks. […]

[2] = Study B: single and multiple dose pharmacokinetics after 20-minute intravenous infusion of 24 mg methylnaltrexone; conditions: 24 mg IV infusion; for AUC(0-inf) / Cmax: iv, 24 mg; for Cmax: read-out: Cmax
Method: (§1) Presented herein is a clinical pharmacokinetics study, Study C, as well as Studies A and B. Study A investigated the single and multiple dose pharmacokinetics of methylnaltrexone (MNTX) and its metabolites (M2: methylnaltrexone sulfate; M4: 6α-methylnaltrexol; and M5: 6β-methylnaltrexol) following the subcutaneous administration of 12 mg methylnaltrexone. In Study B, the single and multiple dose pharmacokinetics of methylnaltrexone (MNTX) and its metabolites (M2, M4, and M5) were examined following a 20-minute short intravenous infusion of 24 mg of methylnaltrexone (MNTX).
(§2) Pharmacokinetic parameters included Cmax, AUCt, AUCinf, tmax, t1/2, % Re24, accumulation factor (R) as defined below and metabolite/parent drug ratio.
(§3) R=Accumulation Factor(based on AUC0-24(ng·h/mL):Day 7 AUC AUC0-24/Day 1 AUC0-24
(§4) Metabolite-Parent Drug ratio(based on ng·h/mL)(%)=100*(Metabolite AUC24/MNTX AUC24)
(§5) Note: AUCinf was used in place of AUC AUC0-24 for R and Metabolite-Parent Drug ratio computations following IV administration.

[3] = Study C: single and multiple dose pharmacokinetics of MNTX and metabolites, MNTX 450 mg PO x 7 days; conditions: for bioavailability: oral, MNTX tablets 450 mg, cross-study AUCinf comparison; for bioavailability / half-life / AUC(0-inf) / AUC(0-t) / Cmax: 450 mg; for half-life / AUC(0-inf) / AUC(0-t) / Cmax: po; for AUC(0-t): read-out: AUC0-24; for Cmax: read-out: Cmax
Method: as §1
In addition, the urinary elimination of MNTX was characterized.
as §2, §3, §4, §5

[4] = 150 mg, 300 mg and 450 mg daily oral vs placebo
[5] = human, plasma, 450 mg Tablets oral, Day 1, mean
[6] = human, plasma, 450 mg Tablets oral, Day 7, mean

With `C[N@+]1(CC2CC2)CC[C@]23c4c5ccc(O)c4O[C@H]2C(=O)CC[C@@]3(O)[C@H]1C5.[Br-]` [MNTX, (R)—N-(cyclopropylmethyl) noroxymorphone methobromide] the “primary efficacy endpoint: average proportion of rescue free bowel movements per subject within 4 hours of all doses during the first 4 weeks of dosing” value [1, 4] was “demonstrate efficacy”, the “secondary efficacy endpoints: change in weekly number of RFBMs from baseline weeks 1-4; response to study drug” value [1, 4] was “further demonstrate efficacy” and the adverse events ([1]; dosages of 150 mg, 300 mg and 450 mg) was “did not result in adverse events”. For the same compound, the “proportion of subjects with rescue free bowel movements within 4 hours of the first dose” value ([1]; first dose of study drug) was “further confirmed efficacy”, the “laxation effects, fasted compared to non-fasted subjects” value ([1]; phase 3 study, following the first dose of study drug) was “increased in fasted subjects compared to non-fasted subjects” and the “R (IV), accumulation factor” value ([2]; AUCinf used) was 1.17. For the same compound, the AUC(0-inf) ([2]; human, in vivo, Day 1, mean) was 396 ng·h/mL, the Cmax ([2]; human, in vivo, Day 1, mean) was 533 ng/mL and the AUC(0-inf) ([2]; human, in vivo, Day 7, mean) was 375 ng·h/mL. It also gave a Cmax ([2]; human, in vivo, Day 7, mean) of 520 ng/mL, a half-life ([2]; human, in vivo, day not given) of 10.8 h and an AUC(0-t) ([2]; human, in vivo, day not given, mean, read-out: AUC0-6) of 326 ng·h/mL. The “R (PO), accumulation factor” value ([3]; 450 mg Tablets oral, AUC0-24 on Day 7/AUC0-24 on Day 1) was 1.20, the bioavailability ([3]; human, plasma, multiple dose, read-out: bioavailability relative to IV multiple dose administration) was 5.8% and the bioavailability ([3]; human, plasma, multiple dose, read-out: bioavailability relative to SC multiple dose administration) was 4.8%. The bioavailability ([3]; human, plasma, single dose, read-out: absolute bioavailability (relative to IV infusion)) was 4.24%, the bioavailability ([3]; human, plasma, single dose, read-out: bioavailability relative to SC injection) was 3.7% and the half-life ([3]; human, plasma, 450 mg Tablets oral, Day 1, harmonic mean) was 8.8 h. It also gave an AUC(0-inf) [3, 5] of 315 ng·h/mL, an AUC(0-t) [3, 5] of 280 ng·h/mL and a Cmax [3, 5] of 47 ng/mL. For the same compound, the half-life ([3]; human, plasma, 450 mg Tablets oral, Day 7, harmonic mean) was 19.2 h, the AUC(0-inf) [3, 6] was 404 ng·h/mL and the AUC(0-t) [3, 6] was 309 ng·h/mL. It also gave a Cmax [3, 6] of 45.5 ng/mL and a Tmax ([3]; human, plasma, 450 mg Tablets oral, Day 1, median, read-out: Tmax) of 2 h.
